Test system: SH-SY5Y cells
Experiment: Confocal immunofluorescence of synaptophysin and 3-nitrotyrosine
Assay type: cell-based, human
Details: pharmacological inhibition (7-NI) or knockdown of nNOS
Procedure: FIGS. 18A-C show immunofluorescence of synaptophysin and 3-nitrotyrosine in SH-SY5Y cells with inhibited nNOS activity. Cells (with or without treatment) were postfixed in 4% paraformaldehyde and then incubated with the primary rabbit monoclonal Syp (red), and either primary mouse monoclonal NeuN (green), or primary mouse monoclonal 3-Ntyr (green) antibodies, in another group of cells. Cells were incubated with their respective secondary antibodies, such as anti-mouse Alexa fluor488, or anti-rabbit Alexa fluor594, and then mounted with DAPI (Blue) in both groups of cells. The images were acquired using a confocal microscope. Groups of cells: SH-SY5Y, SH-SY5Y+7-NI, and SH-SY5Y+si-nNOS. Each group consisted of three independent sets of experiments and was run in triplicates. The initial cell seed number was ˜10^6/cm^2. FIG. 18A presents representative images of Syp and 3-Ntyr immunofluorescence. FIGS. 18B-C are bar graphs showing the relative fluorescent intensity of Syp (FIG. 18B) and N-Tyr (FIG. 18C) immunofluorescence in the 3 groups of cells. The data are presented as mean±SEM. One-way ANOVA followed by Fisher's LSD multiple comparison post hoc test was conducted. *P<0.05, **P<0.01, ***P<0.001. The scale bar is 100 μm. […]

O=[N+]([O-])c1cccc2cn[nH]c12 [7-NI, 7-nitroindazole]
intensity of 3-Ntyr immunofluorescence: significantly decreased the intensity | intensity of Syp immunofluorescence: significantly decreased the intensity
